Read-outs that look alike come from different tables or passages of the source.
What was measured:
β-alanine aminopeptidase [1] = settings: Citrobacter amalonaticus; 2 strains tested; read after 22 to 24 hours
β-alanine aminopeptidase [2] = settings: Enterobacter cloacae; 2 strains tested; read after 22 to 24 hours
β-alanine aminopeptidase [3] = settings: Escherichia coli; 2 strains tested; read after 22 to 24 hours
β-alanine aminopeptidase [4] = settings: Brevundimonas diminuta; 2 strains tested; read after 22 to 24 hours
β-alanine aminopeptidase [5] = settings: Chryseobacterium meningosepticum; 2 strains tested; read after 22 to 24 hours
β-alanine aminopeptidase [6] = settings: Moraxella non liquefaciens; 2 strains tested; read after 22 to 24 hours
β-alanine aminopeptidase [7] = settings: Pseudomonas mendocina; 1 strain tested; read after 22 to 24 hours
β-alanine aminopeptidase [8] = settings: Pseudomonas putida; 1 strain tested; read after 22 to 24 hours
β-alanine aminopeptidase [9] = settings: Stenotrophomonas maltophilia; 2 strains tested; read after 22 to 24 hours
β-alanine aminopeptidase [10] = assay: APIZYM-type test strips with β-alanyl-β-naphthylamide; format: cell-based; settings: Shigella sonnei; five strains
β-alanine aminopeptidase [11] = assay: as above; format: cell-based; settings: Edwarsiella tarda; 2 strains
β-alanine aminopeptidase [12] = assay: as above; format: cell-based; settings: Salmonella spp.; five strains
β-alanine aminopeptidase [13] = assay: as above; format: cell-based; settings: Salmonella paratyphi A; five strains
β-alanine aminopeptidase [14] = assay: as above; format: cell-based; settings: Salmonella gallinarum; 3 strains
β-alanine aminopeptidase [15] = assay: as above; format: cell-based; settings: Klebsiella rhinoscleromatis; 3 strains
β-alanine aminopeptidase [16] = assay: as above; format: cell-based; settings: Hafnia alvei; five strains
β-alanine aminopeptidase [17] = assay: as above; format: cell-based; settings: Enterobacter sakazakii; five strains
β-alanine aminopeptidase [18] = assay: as above; format: cell-based; settings: Enterobacter gergoviae; five strains
β-alanine aminopeptidase [19] = assay: as above; format: cell-based; settings: Serratia odorifera; five strains
β-alanine aminopeptidase [20] = assay: as above; format: cell-based; settings: Proteus mirabilis; five strains
β-alanine aminopeptidase [21] = assay: as above; format: cell-based; settings: Proteus rettgeri; five strains
β-alanine aminopeptidase [22] = assay: as above; format: cell-based; settings: Yersinia enterocolitica; five strains
β-alanine aminopeptidase [23] = assay: as above; format: cell-based; settings: Shewanella putrefaciens; five strains
β-alanine aminopeptidase [24] = assay: as above; format: cell-based; settings: Stenotrophomonas maltophilia; five strains
β-alanine aminopeptidase [25] = assay: as above; format: cell-based; settings: Achroniobacter xylosoxidans spp. denitrificans; five strains
β-alanine aminopeptidase [26] = assay: as above; format: cell-based; settings: CDC IV C2; five strains
β-alanine aminopeptidase [27] = assay: as above; format: cell-based; settings: Aeromonas hydrophila; five strains
β-alanine aminopeptidase [28] = assay: as above; format: cell-based; settings: Vibrio alginolyticus; five strains
β-alanine aminopeptidase [29] = assay: as above; format: cell-based; settings: Chryseobacterium balustinum; 1 strain
β-alanine aminopeptidase [30] = assay: as above; format: cell-based; settings: Weeksella virosa; 4 strains
β-alanine aminopeptidase [31] = assay: as above; format: cell-based; settings: Pasteurella gallinarum; 1 strain
β-alanine aminopeptidase [32] = assay: as above; format: cell-based; settings: Pasteurella pneumotropica; 4 strains
β-alanine aminopeptidase [33] = assay: as above; format: cell-based; settings: Pasteurella haemolytica; five strains
β-alanine aminopeptidase [34] = assay: as above; format: cell-based; settings: proches de Pasteurella; 4 strains
β-alanine aminopeptidase [35] = assay: as above; format: cell-based; settings: Moraxella bovis; 4 strains
β-alanine aminopeptidase [36] = assay: as above; format: cell-based; settings: Serratia liquefaciens; five strains
β-alanine aminopeptidase [37] = assay: as above; format: cell-based; settings: Pseudomonas aeruginosa; five strains
β-alanine aminopeptidase [38] = assay: as above; format: cell-based; settings: Pseudomonas fluorescens; five strains
β-alanine aminopeptidase [39] = assay: as above; format: cell-based; settings: Pseudomonas mendocina; five strains

Question: For `NCCC(=O)c1c(N)cc(Cl)c(O)c1Cl`, which “Number of negative results” value (β-alanine aminopeptidase [1]) is on record?
Answer: 2

Question: And the Number positive results (β-alanine aminopeptidase [1])?
Answer: 0

Question: And the “Number of negative results” value (β-alanine aminopeptidase [2])?
Answer: 2

Question: What about the Number positive results (β-alanine aminopeptidase [2]) of the same molecule?
Answer: 0

Question: What about the “Number of negative results” value (β-alanine aminopeptidase [3]) of the same molecule?
Answer: 2

Question: And the Number positive results (β-alanine aminopeptidase [3])?
Answer: 0

Question: And the “Number of negative results” value (β-alanine aminopeptidase [4])?
Answer: 2

Question: What about the Number positive results (β-alanine aminopeptidase [4]) of the same molecule?
Answer: 0

Question: And the “Number of negative results” value (β-alanine aminopeptidase [5])?
Answer: 2

Question: And the Number positive results (β-alanine aminopeptidase [5])?
Answer: 0

Question: And the “Number of negative results” value (β-alanine aminopeptidase [6])?
Answer: 2

Question: What about the Number positive results (β-alanine aminopeptidase [6]) of the same molecule?
Answer: 0

Question: What about the “Number of negative results” value (β-alanine aminopeptidase [7]) of the same molecule?
Answer: 0

Question: What about the Number positive results (β-alanine aminopeptidase [7]) of the same molecule?
Answer: 1

Question: And the “Number of negative results” value (β-alanine aminopeptidase [8])?
Answer: 1

Question: And the Number positive results (β-alanine aminopeptidase [8])?
Answer: 0

Question: And the “Number of negative results” value (β-alanine aminopeptidase [9])?
Answer: 2

Question: What about the Number positive results (β-alanine aminopeptidase [9]) of the same molecule?
Answer: 0

Question: β-alanyl-β-naphthylamide was tested. Which “β-alanine aminopeptidase activity, result” value (β-alanine aminopeptidase [10]) did it give?
Answer: negative

Question: And the “β-alanine aminopeptidase activity, result” value (β-alanine aminopeptidase [11])?
Answer: negative

Question: And the “β-alanine aminopeptidase activity, result” value (β-alanine aminopeptidase [12])?
Answer: negative

Question: And the “β-alanine aminopeptidase activity, result” value (β-alanine aminopeptidase [13])?
Answer: negative

Question: And the “β-alanine aminopeptidase activity, result” value (β-alanine aminopeptidase [14])?
Answer: negative

Question: What about the “β-alanine aminopeptidase activity, result” value (β-alanine aminopeptidase [15]) of the same molecule?
Answer: negative

Question: What about the “β-alanine aminopeptidase activity, result” value (β-alanine aminopeptidase [16]) of the same molecule?
Answer: negative

Question: And the “β-alanine aminopeptidase activity, result” value (β-alanine aminopeptidase [17])?
Answer: negative

Question: And the “β-alanine aminopeptidase activity, result” value (β-alanine aminopeptidase [18])?
Answer: negative

Question: What about the “β-alanine aminopeptidase activity, result” value (β-alanine aminopeptidase [19]) of the same molecule?
Answer: negative

Question: What about the “β-alanine aminopeptidase activity, result” value (β-alanine aminopeptidase [20]) of the same molecule?
Answer: negative

Question: What about the “β-alanine aminopeptidase activity, result” value (β-alanine aminopeptidase [21]) of the same molecule?
Answer: negative

Question: And the “β-alanine aminopeptidase activity, result” value (β-alanine aminopeptidase [22])?
Answer: negative

Question: And the “β-alanine aminopeptidase activity, result” value (β-alanine aminopeptidase [23])?
Answer: negative

Question: What about the “β-alanine aminopeptidase activity, result” value (β-alanine aminopeptidase [24]) of the same molecule?
Answer: negative

Question: And the “β-alanine aminopeptidase activity, result” value (β-alanine aminopeptidase [25])?
Answer: negative

Question: And the “β-alanine aminopeptidase activity, result” value (β-alanine aminopeptidase [26])?
Answer: negative

Question: What about the “β-alanine aminopeptidase activity, result” value (β-alanine aminopeptidase [27]) of the same molecule?
Answer: negative

Question: What about the “β-alanine aminopeptidase activity, result” value (β-alanine aminopeptidase [28]) of the same molecule?
Answer: negative

Question: What about the “β-alanine aminopeptidase activity, result” value (β-alanine aminopeptidase [29]) of the same molecule?
Answer: negative

Question: What about the “β-alanine aminopeptidase activity, result” value (β-alanine aminopeptidase [30]) of the same molecule?
Answer: negative

Question: What about the “β-alanine aminopeptidase activity, result” value (β-alanine aminopeptidase [31]) of the same molecule?
Answer: negative

Question: What about the “β-alanine aminopeptidase activity, result” value (β-alanine aminopeptidase [32]) of the same molecule?
Answer: negative

Question: And the “β-alanine aminopeptidase activity, result” value (β-alanine aminopeptidase [33])?
Answer: negative

Question: What about the “β-alanine aminopeptidase activity, result” value (β-alanine aminopeptidase [34]) of the same molecule?
Answer: negative

Question: What about the “β-alanine aminopeptidase activity, result” value (β-alanine aminopeptidase [35]) of the same molecule?
Answer: negative

Question: And the “β-alanine aminopeptidase activity, result” value (β-alanine aminopeptidase [36])?
Answer: positive

Question: And the “β-alanine aminopeptidase activity, result” value (β-alanine aminopeptidase [37])?
Answer: positive

Question: What about the “β-alanine aminopeptidase activity, result” value (β-alanine aminopeptidase [38]) of the same molecule?
Answer: positive

Question: And the “β-alanine aminopeptidase activity, result” value (β-alanine aminopeptidase [39])?
Answer: positive
